Laboratory results: patent publication US10894808B2, “Polypeptide ligands specific for plasma kallikrein” (BicycleRD Limited, priority 2013, dated 2021)
Like-named read-outs stand apart in the source and are kept apart here. *1 amine or outer side, *2 acyl side, *3 side chain or, on linkers, in order; H or OH if unused. Where a SMILES comes first, the peptide text is derived from it. Bridges are numbered along the chain shown (N, C = ends). [ ]: non-standard residue; d: D form. TBMB = c1c(C[*:1])cc(C[*:3])cc1C[*:2]; hArg = N=C(N)NCCCC[C@H](N)C(=O)O; Aze = O=C(O)[C@@H]1CCN1; Sar = CNCC(=O)O

Assays:
[1] = Aqueous solubility (qualitative); format: physicochemical; conditions: in words
[2] = molecular target: rabbit kallikrein (Oryctolagus cuniculus, UniProt G1T127); experiment: Functional enzyme assay, inhibition of rabbit kallikrein; format: biochemical; conditions: read-out: Rabbit (Ki)
Method in brief: (§1)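 Buffer 10 mM Tris HCl, 150 mM NaCl, 10 mM MgCl2, 1 mM CaCl2, 1 mg/mL BSA, pH 7.4, 25° C. AMC release read at ex 360/em 460 nm; linear-phase rate (typically 5–45 min) fitted by four-parameter non-linear regression for IC50, with Ki also derived.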

[3] = molecular target: T1, human plasma kallikrein (Homo sapiens, UniProt P03952); experiment: Functional enzyme assay, inhibition of human plasma kallikrein (Z-PheArg-AMC substrate); format: biochemical
T1 construct: purchased Stratech, UK
Method in brief: as §1

[4] = Plasma stability profiling Method #1 (35% plasma, MALDI-TOF window of detection); format: in vitro ADME; conditions: Method #1, 35% rat or human plasma, 37° C., qualitative
Protocol: A rapid plasma stability profiling assay was developed that employed mass spectrometric detection (MALDI-TOF, Voyager DE, Applied Biosystems) of the parent mass, until the time when the parent peptide mass was no longer observable. Specifically, 200 μM of peptide was incubated in the presence of 35% rat or human plasma (Sera labs, using citrate as anticoagulant) at 37° C., which was supplemented with 1×PBS (derived from a 10×PBS Stock, Sigma). At various time points (i.e. t=0, 3, 24 hrs, henceafter daily up to 10 days), 2 μL of sample was added to 18 μL of 30 mM ammonium bicarbonate in a 1:1 mixture of acetonitrile:H2O. Samples were frozen at −80° C. until the time of analysis. For mass spectrometric analysis that determines the approximate detection window of the peptide, the acetonitrile:H2O-diluted sample of a given time point was spotted directly (0.7 μL) onto the MALDI plate. Matrix (alpha-cyanocinnamic acid, Sigma, prepared as a saturated solution in 1:1 acetonitrile:water containing 0.1% trifluoroacetic acid) was layered over the sample (1 μL). At a similar laser intensity setting on the MALDI TOF, the time could then be determined until parent peptide was no longer detectable. It should be noted that this is a qualitative assay serves to detect relative changes in plasma stability.

[5] = molecular target: T2, rat plasma kallikrein (Rattus norvegicus, UniProt P14272); experiment: Functional enzyme assay, inhibition of rat plasma kallikrein (Z-PheArg-AMC substrate); format: biochemical; conditions: Table 1, synthetic peptides; read-out: Rat (Ki)
T2 construct: polyhistidine tag followed by proTEV cleavage site (pro-peptide) (N, cleaved yes); made in house; host or cells: HEK-293 (suspension-adapted), pEXPR-IBA42 vector
Protocol: Functional enzyme assays were conducted in 10 mM Tris HCl, 150 mM NaCl, 10 mM MgCl2, 1 mM CaCl2 and 1 mg/mL BSA (all Sigma UK) pH 7.4 at 25° C. in solid black 96 or 384 well plates. […] Release of AMC was measured using a Pherastar FS (BMG Labtech), excitation 360 nm, emission 460 nm. The rate of the linear phase of the reaction, typically 5 to 45 minutes, was calculated in MARS data analysis software (BMG labtech). The rate was then used to calculate the IC50 and Ki in Prism (GraphPad). A four parameter inhibition non-linear regression equation was used to calculate the IC50. […]
Peptides were dissolved as the TFA-salts in their powder form, and stock solutions were usually prepared in water. All solutions were centrifuged and filtered ([…] syringe filters) prior to absorption measurement at 280 nm. Extinction coefficients were calculated based on the Trp/Tyr content of the peptide, and that of TMB (the TMB core, when contained in a peptide, has an extinction coefficient of ˜300 M^−1 cm^−1).

[6] = molecular target: T3, biotinylated human plasma kallikrein (Homo sapiens, UniProt P03952); experiment: Homogeneous plate-based screening assay of TBMB-cyclised phage clones (signal:background); format: binding; conditions: Table 4, 06-259 affinity-matured library
T3 construct: The human kallikrein is non-recombinant and therefore the heavy chain is present; purchased Innovative Research, Novi, Mich., USA IHPKA; host or cells: from human plasma
Protocol: Assay of binding of individual clones: Library transformant colonies were picked at random and grown as individual cultures in 2TY broth containing selective antibiotic. The picked colonies were DNA-sequenced using a QIAgen PyroMark Q96 DNA sequencer to reveal the amino-acid substitution present in each clone. Where isolated, a clone of each unique substitution was assayed for human plasma kallikrein binding as follows. The phage-containing supernatant was harvested from the culture and phage were cyclised with tris bromomethyl benzene (TBMB) based on the methods of Heinis et al (Nature Chemical Biology vol. 5 pp 502-507 (2009)). The purified phage from this process were assayed for binding to biotinylated human plasma kallikrein using a homogeneous plate-based binding assay; assay read-out measured on a BMG Labtech Pherastar FS plate reader. The quantitative binding data from triplicate assay samples was averaged (mean) and expressed as signal:background (where background was a sample assayed with no target material). The signal:background was expressed as a % of the parallel parent sample. Error bars denote standard deviation of the mean. Assays shown are representative of at least 2 independent experiments. The assay data was correlated with the peptide sequences. Substitutions marked in grey were not tested (a clone was not isolated from the random library sampling). A sample of a non-binding (arbitrary) bicycle was assayed in parallel to illustrate the assay baseline.
Assay of binding of individual clones: Library transformant colonies, or selection output colonies, were picked and grown as individual cultures in 2TY broth containing selective antibiotic. The picked colonies were DNA-sequenced using a QIAgen PyroMark Q96 DNA sequencer to reveal the amino-acid substitution present in each clone, and were assayed for human plasma kallikrein binding as follows. The phage-containing supernatant was harvested from the culture and phage were cyclised with tris-bromomethylbenzene (TBMB) based on the methods of Heinis et al (Nature Chemical Biology vol. 5 pp 502-507 (2009)). The purified phage from this process were assayed for binding to biotinylated human plasma kallikrein using a homogeneous plate-based binding assay; assay read-out measured on a BMG Labtech Pherastar FS plate reader. The quantitative binding data from duplicate assay samples was averaged (mean) and expressed as signal:background. Assay data shown is representative of at least 2 independent experiments. The assay data was correlated with the peptide sequences.

[7] = Intravenous pharmacokinetics in rat; format: in vivo; conditions: iv 5 mg/kg
Protocol: Peptides used for the pharmacokinetic studies in Example 4 were lyophilised from 10 mM HCl in water 3 times to afford the hydrochloride salts of the compounds. Solutions were dosed by intravenous bolus at 1 mg/mL in 50 mM Hepes pH 7.0, 5% glycerol, 1.9% DMSO for two compounds (Ac-(06-550) Aze3 HArg5 Sar3-(D-Arg2)) and (06-259-02)-Sar3-(D-Arg2)) at 5 mg/kg in Spraguely Dawely rats. Serial blood samples (˜0.2 mL) were taken into EDTA tubes at the indicated time points, and plasma was separated by centrifugation, and frozen at −20 C for analysis. Employing standard bioanalytical techniques, plasma samples were then analysed and quantified for parent remaining compound using a Waters, Xevo TQS LC-MS. PK parameters were determined using the software package PK Solutions 2.0 from Summit Research Services.
Peptides Ac-(06-550)-Sar3-(D-Arg)2Aze3 HArg5 (which contains the stabilising and affinity enhancing modifications Aze3 and HArg5, and a solubilising C-terminal extension Sar3-(D-Arg)2) (SEQ ID NO: 98) and Ac-(06-259-02)-Sar3-(D-Arg)2 were selected for pharmacokinetic assessment in rat. Peptides were injected intravenously in buffered solution at 1 mg/mL at 5 mg/kg Sprague Dawley rats, and blood was sampled and analysed for peptide concentrations at a number of time points post injection.

[8] = Plasma stability profiling Method #2 (95% plasma, MALDI-TOF), rat plasma; format: in vitro ADME; conditions: qualitative, sampled up to 46 hrs
Protocol: (§2) To obtain stability data more rapidly, peptides were also assessed in 95% plasma. Here, PBS was omitted, and a 1-5 mM peptide stock (in DMSO) was directly diluted into plasma (i.e. 2.5 μL stock into 47.5 μL plasma), giving a final concentration of 50 μM. 5 μL samples were taken at appropriate time points and frozen at −80° C. For analysis, the samples were defrosted, mixed with 25 μL of 3:3:1 acetonitrile:methanol:water, and centrifuged at 13 k for 5 min. 5 μL of the peptide-containing supernatant was aspirated and mixed with 30 mM ammonium bicarbonate in a 1:1 mixture of acetonitrile:H2O. 1 μL of this was then spotted on the MALDI plate and analysed as described above. As above, it should be noted that this is a qualitative assay serves to detect relative changes in plasma stability.

[9] = Plasma stability profiling Method #2 (95% plasma, MALDI-TOF), human plasma; format: in vitro ADME; conditions: qualitative, sampled up to 46 hrs
Protocol: as §2

[10] = Pharmacokinetics following intravitreal injection in rabbit; format: in vivo; conditions: vitreous humour; New Zealand White rabbit, intravitreal 100 μg/eye; read-out: elimination half-life from the vitreous humour
Protocol: In this analysis, peptide Ac-(06-550)-Sar3-(D-Arg)2 Aze3 HArg5 (referred to in this study as Bicycle 1 and which contains the stabilising and affinity enhancing modifications Aze3 and HArg5, and a solubilising C-terminal extension Sar3-(D-Arg)2 (SEQ ID NO: 98); see Examples 3 and 4 herein) was assessed comparatively against the peptide Ac-(06-34-18) Phe2 Aze3 Tyr4 HArg5 Ala(ψCH2NH)6 (referred to in this study as Bicycle 2 and which is disclosed in Table 26b and FIG. 22 of PCT/EP2014/057440). New Zealand White rabbits (2-3 kg) were anaesthetized and both peptides were administered by intravitreal injection (100 μg/eye) according to the protocol described in Table 9.
After an appropriate time, rabbits were euthanized and vitreous humour, aqueous humour, retina and plasma samples were taken. Samples were analysed by LC-MS to determine the concentration of the peptide. The results of this study are shown in FIG. 5 where it can be observed that both peptides were slowly cleared from the vitreous humour, with elimination half-lives of 20-30 h.

Sequence of rabbit kallikrein (G1T127 20-629): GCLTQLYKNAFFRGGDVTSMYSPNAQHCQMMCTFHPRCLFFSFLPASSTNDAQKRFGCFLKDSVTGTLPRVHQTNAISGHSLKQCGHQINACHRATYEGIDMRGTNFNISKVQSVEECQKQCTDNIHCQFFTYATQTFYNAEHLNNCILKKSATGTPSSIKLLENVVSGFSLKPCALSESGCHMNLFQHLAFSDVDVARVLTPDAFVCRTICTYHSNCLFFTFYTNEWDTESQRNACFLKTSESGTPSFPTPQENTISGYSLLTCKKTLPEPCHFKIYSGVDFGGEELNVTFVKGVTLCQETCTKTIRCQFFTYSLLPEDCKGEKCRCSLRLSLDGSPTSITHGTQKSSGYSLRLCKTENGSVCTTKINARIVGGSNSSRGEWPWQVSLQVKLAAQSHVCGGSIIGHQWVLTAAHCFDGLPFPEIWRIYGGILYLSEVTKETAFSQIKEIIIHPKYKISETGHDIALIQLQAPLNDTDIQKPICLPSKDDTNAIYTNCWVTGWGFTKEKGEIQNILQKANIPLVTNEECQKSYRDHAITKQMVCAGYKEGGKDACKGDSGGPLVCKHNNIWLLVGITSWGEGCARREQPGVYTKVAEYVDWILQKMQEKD
T1 sequence (P03952 391-638 limits assumed): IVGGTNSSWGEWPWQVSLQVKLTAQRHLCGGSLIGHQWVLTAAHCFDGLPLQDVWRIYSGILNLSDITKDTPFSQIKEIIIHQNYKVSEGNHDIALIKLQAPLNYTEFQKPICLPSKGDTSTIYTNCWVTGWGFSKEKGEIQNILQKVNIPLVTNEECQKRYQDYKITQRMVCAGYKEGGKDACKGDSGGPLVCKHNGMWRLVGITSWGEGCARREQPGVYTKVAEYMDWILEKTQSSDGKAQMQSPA
T1 sequence (P03952 20-390 partner limits assumed): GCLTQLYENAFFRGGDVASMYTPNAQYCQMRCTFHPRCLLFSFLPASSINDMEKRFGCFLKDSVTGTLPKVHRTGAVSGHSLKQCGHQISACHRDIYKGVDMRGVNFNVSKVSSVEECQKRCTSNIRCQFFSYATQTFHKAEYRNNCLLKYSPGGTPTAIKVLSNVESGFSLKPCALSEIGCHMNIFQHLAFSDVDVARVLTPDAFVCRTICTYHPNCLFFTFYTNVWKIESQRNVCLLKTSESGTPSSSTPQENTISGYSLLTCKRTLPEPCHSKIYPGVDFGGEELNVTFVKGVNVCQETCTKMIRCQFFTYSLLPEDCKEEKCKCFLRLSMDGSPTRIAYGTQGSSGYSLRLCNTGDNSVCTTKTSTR
T2 sequence (P14272 391-638 limits assumed): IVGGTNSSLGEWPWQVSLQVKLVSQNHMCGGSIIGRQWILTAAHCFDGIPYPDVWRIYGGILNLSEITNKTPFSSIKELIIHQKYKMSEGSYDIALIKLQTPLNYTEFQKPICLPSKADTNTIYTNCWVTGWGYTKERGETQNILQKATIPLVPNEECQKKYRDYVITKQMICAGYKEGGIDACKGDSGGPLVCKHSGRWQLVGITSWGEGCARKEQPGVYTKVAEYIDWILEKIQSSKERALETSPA
T3 sequence (P03952 391-638 limits assumed): as the sequence (P03952 391-638 limits assumed) above
T3 sequence (P03952 20-390 partner limits assumed): as the sequence (P03952 20-390 partner limits assumed) above

CC[C@H](C)[C@@H]1NC(=O)[C@H](CC(C)C)NC(=O)[C@H]([C@@H](C)O)NC(=O)[C@@H]2CSCc3cc(cc(c3)CSC[C@@H](C(=O)N[C@@H](C)C(N)=O)NC(=O)[C@H]([C@@H](C)O)NC(=O)[C@H]([C@@H](C)CC)NC(=O)[C@H](CC(N)=O)NC1=O)CSC[C@H](NC(=O)[C@H](C)N)C(=O)N[C@@H](CCCNC(=N)N)C(=O)N[C@@H](CC(N)=O)C(=O)N[C@@H](Cc1ccc(O)cc1)C(=O)N[C@@H](Cc1c[nH]c3ccccc13)C(=O)N[C@@H](CC(N)=O)C(=O)N1CCC[C@H]1C(=O)N2 [06-255] (H-ACRNYWNPCTLINITCA-NH2; linker 2-9-16 via TBMB; N-terminus and C-terminus assumed)
aqueous solubility [1]: poor solubility profile
Ki ([2]; Table 1, synthetic peptides): 342 nM
Ki ([2]; Table 5): 342 nM
Ki ([3]; Table 1, synthetic peptides, read-out: Human (Ki)): 3.4 nM
window of detection of parent peptide [4]: up to 10 days
Ki [5]: 18.9 nM

CC(C)C[C@@H]1NC(=O)[C@@H]2CCCN2C(=O)[C@H](C)NC(=O)[C@H](CC(=O)O)NC(=O)[C@H](Cc2c[nH]c3ccccc23)NC(=O)[C@@H]2CCCN2C(=O)[C@@H]2CSCc3cc(cc(c3)CSC[C@@H](C(=O)N[C@@H](C)C(N)=O)NC1=O)CSC[C@H](NC(=O)[C@H](C)N)C(=O)N[C@@H](CC(N)=O)C(=O)N[C@@H]([C@@H](C)O)C(=O)N[C@@H](Cc1c[nH]c3ccccc13)C(=O)N[C@@H](CC(N)=O)C(=O)N1CCC[C@H]1C(=O)N[C@@H](Cc1c[nH]c3ccccc13)C(=O)N2 [06-259-02] (H-ACNTWNPWCPWDAPLCA-NH2; linker 2-9-16 via TBMB; N-terminus and C-terminus assumed)
S:B (Signal:Background) [6]: 43.49
aqueous solubility [1]: poor solubility profile
clearance ([7]; Sprague-Dawley, plasma, text b258, rat): 7 mL/min/kg
Ki ([2]; Table 5): 1450 nM
comparative stability in rat plasma [8]: significantly more stable
window of detection of parent peptide [4]: up to 10 days
comparative stability in human plasma [9]: significantly more stable

CC[C@H](C)[C@@H]1NC(=O)[C@H](CC(=O)O)NC(=O)[C@@H]2CCCN2C(=O)[C@H](Cc2ccc(O)cc2)NC(=O)[C@H](Cc2ccc(O)cc2)NC(=O)[C@H](C(C)C)NC(=O)[C@@H]2CSCc3cc(cc(c3)CSC[C@@H](C(=O)N[C@@H](C)C(=O)N(C)CC(=O)N(C)CC(=O)N(C)CC(=O)N[C@H](CCCNC(=N)N)C(=O)N[C@H](CCCNC(=N)N)C(N)=O)NC1=O)CSC[C@H](NC(C)=O)C(=O)N[C@@H](CO)C(=O)N[C@@H](Cc1ccccc1)C(=O)N1CC[C@H]1C(=O)N[C@@H](Cc1ccc(O)cc1)C(=O)N[C@@H](CCCCNC(=N)N)C(=O)N2 [Ac-(06-550)-Sar3-(DArg2) Aze3HArg5] (Ac-CSF[Aze]Y[hArg]CVYYPDICA[Sar][Sar][Sar][dR][dR]-NH2; linker 1-7-14 via TBMB; C-terminus assumed)
clearance ([7]; in vivo, Table 8, Sprague Dawley rat): 17 mL/min/kg
Vd ([7]; in vivo, Table 8, Sprague Dawley rat, read-out: Vss): 0.4 L/kg
half-life ([7]; in vivo, Table 8, Sprague Dawley rat, read-out: t1/2 elimination): 2.27 h
comparative stability in rat plasma [8]: high stability
comparative stability in rat plasma ([8]; listed as 06-550 derivative): Little degradation is observed
Ki [3]: 0.4 nM
half-life [10]: 20 to 30 h
comparative stability in human plasma [9]: high stability
comparative stability in human plasma ([9]; listed as 06-550 derivative): Little degradation is observed
